Three molecules from US5219879A, “Heterocyclic steroid compounds” (Du Pont Merck Pharmaceutical Company, priority 1991, dated 1993) can be followed below.

pIC50: −log10 of the molar value.

For this experiment, the system named is cholesterol biosynthesis pathway. Briefly: Assay of 14C-Acetate Incorporation into the Biosynthesis of Cholesterol (HepG2 cells). To be noted: Homo sapiens, 22 hours with test compound, then 14C-acetate for additional 2 hours, read-out: IC50, inhibition of the incorporation of 14C-acetate into the cholesterol biosynthesis pathway. The experiment is classed as cell-based. The protocol:
The HepG2 cells (a human hepatoma cell line) used in this example were obtained from the American Type Culture Collection (ATCC, Rockville, Md.). They were maintained in Dulbecco's Modified Eagles Medium and Ham's F12 Medium (1:1) supplemented with 10% heat inactivated Fetal Bovine serum, […] Herpes, 1 mM sodium pyruvate, 1×Non-essential Amino Acids (Gibco) and 2 mM L-glutamine.
The cells were harvested by washing cultures with 10 ml Hank's Balanced Salt Solution (2×) and incubating with 0.125% Trypsin in Versene (0.02% EDTA) for approximately one minute. After the cells are visibly rounded and loosened from the flask, 9 ml of the above medium is added. The cells are transferred to a […] culture dish and syringed up and down through a 20 gauge needle to break up aggregated clumps of cells. Cell cultures are plated at 0.1×10^6 /ml and 0.075×10^6 /ml in two 24 well plates, respectively, aliquoting 1 ml cells/well. The cells are allowed to attach for 24 hours (48 hours for the lower density plate) before washing 2× with HBSS and refed with 1 ml of the above medium with 1% Cabosil delipidated serum instead of Fetal Bovine Serum. The cells are treated with the test compounds after 24 hours of exposure to the delipidated serum media.
Chemicals are routinely prepared as a 10 mM solution in 100% ethanol or dimethyl sulfoxide (DMSO). All test compounds are added at 50 μM, 25 μM, 10 μM, 1 μM at a final concentration of 0.45% solvent, 0.25% Bovine Serum Albumin (BSA) suspension per well. The solvent BSA is sonicated for 10 seconds to ensure maximum solubilization before addition to the cells. Control wells receive solvent/BSA at the same concentrations as the drug treated cultures. […]
The eluted sterols are dried under nitrogen gas and resuspended in 150 μL ethanol. […] The samples are counted on the dual label ^3 H:^14 C program on the Beckman scintillation counter Model LS 7800.
The incorporation of both radiolabeled precursors into sterols is compared between the treated and non-treated (control) cultures and expressed as "% control" for each precursor. […]
`C=C[C@@]12OC[C@H]([C@H](C)/C=C/[C@H](C)C(C)C)[C@@]1(C)CCC1=C2CC[C@H]2C(C)(C)[C@@H](O)CC[C@]12C` [Example 28 (Compound 78), (22E)-4,4-Dimethyl-15-oxa-14α-vinylergosta-8,22-dien-3β-ol]: the pIC50 was 7.30.

In the case of `C=C[C@@]12OC[C@H]([C@H](C)/C=C/[C@H](C)C(C)C)[C@@]1(C)CCC1=C2CC[C@H]2C[C@@H](O)CC[C@]12C` [Example 29 (Compound 80), (22E)-15-Oxa-14α-vinyl-ergosta-8,22-dien-3β-ol], the pIC50 is under 4.30.

Regarding `CC[C@@]12OC[C@H]([C@H](C)CC[C@H](C)C(C)C)[C@@]1(C)CCC1=C2CC[C@H]2C[C@@H](O)CC[C@]12C` [Example 30 (Compound 81), 14α-Ethyl-15-oxa-ergost-8-en-3β-ol], the pIC50 was 6.22.
